ChEMBL document CHEMBL5465560, “Selectivity Literature for EUbOPEN Chemogenomic Library” (2024)

How the values were obtained:
[1] = biological target: Tyrosine-protein kinase JAK2 (Homo sapiens, UniProt O60674); settings: at 10 µM
[2] = biological target: T1, Tyrosine-protein kinase Tec (Homo sapiens) (UniProt P42680); settings: at 10 µM
T1 sequence (whole entry): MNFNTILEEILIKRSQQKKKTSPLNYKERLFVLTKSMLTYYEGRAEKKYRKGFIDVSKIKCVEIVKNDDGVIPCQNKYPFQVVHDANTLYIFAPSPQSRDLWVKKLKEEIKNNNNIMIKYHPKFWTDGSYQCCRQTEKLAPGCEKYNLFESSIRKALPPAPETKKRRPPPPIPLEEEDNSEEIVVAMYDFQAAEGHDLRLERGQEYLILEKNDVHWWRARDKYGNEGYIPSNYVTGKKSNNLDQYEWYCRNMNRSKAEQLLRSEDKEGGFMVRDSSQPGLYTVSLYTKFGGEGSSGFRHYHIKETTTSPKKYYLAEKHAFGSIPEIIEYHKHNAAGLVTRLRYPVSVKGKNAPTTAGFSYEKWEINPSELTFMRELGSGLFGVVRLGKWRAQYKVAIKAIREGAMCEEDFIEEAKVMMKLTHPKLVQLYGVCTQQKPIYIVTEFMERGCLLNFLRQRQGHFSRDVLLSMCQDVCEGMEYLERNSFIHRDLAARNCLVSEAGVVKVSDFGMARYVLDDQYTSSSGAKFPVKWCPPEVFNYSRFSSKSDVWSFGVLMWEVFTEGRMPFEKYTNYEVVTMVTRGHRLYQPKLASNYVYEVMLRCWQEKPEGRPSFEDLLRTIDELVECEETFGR

[3] = biological target: Histamine H3 receptor (Homo sapiens, UniProt Q9Y5N1); experiment: Selectivity interaction (Eurofins CEREP Diversity Profile (receptors and ion channels)) EUB0000279b HRH3; settings: at 10 µM
Sequence of Histamine H3 receptor (Q9Y5N1 whole entry): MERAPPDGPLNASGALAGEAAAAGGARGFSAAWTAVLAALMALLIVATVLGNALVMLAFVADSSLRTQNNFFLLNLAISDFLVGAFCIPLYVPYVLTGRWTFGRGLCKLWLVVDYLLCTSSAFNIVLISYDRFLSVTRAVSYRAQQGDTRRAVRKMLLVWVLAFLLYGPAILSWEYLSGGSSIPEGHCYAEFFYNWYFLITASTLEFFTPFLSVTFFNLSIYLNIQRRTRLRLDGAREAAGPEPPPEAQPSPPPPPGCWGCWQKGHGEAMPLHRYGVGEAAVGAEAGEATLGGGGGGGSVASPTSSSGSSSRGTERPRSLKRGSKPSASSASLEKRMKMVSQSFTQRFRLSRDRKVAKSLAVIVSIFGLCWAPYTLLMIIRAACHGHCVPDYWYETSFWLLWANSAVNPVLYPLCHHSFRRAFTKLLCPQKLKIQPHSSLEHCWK

[4] = biological target: Tyrosine-protein kinase Blk (Homo sapiens) (UniProt P51451); experiment: Selectivity interaction (KinomeScan (DiscoverX)) EUB0000607a BLK; settings: at 10 µM
Sequence of Tyrosine-protein kinase Blk (Homo sapiens) (P51451 2-505 limits assumed): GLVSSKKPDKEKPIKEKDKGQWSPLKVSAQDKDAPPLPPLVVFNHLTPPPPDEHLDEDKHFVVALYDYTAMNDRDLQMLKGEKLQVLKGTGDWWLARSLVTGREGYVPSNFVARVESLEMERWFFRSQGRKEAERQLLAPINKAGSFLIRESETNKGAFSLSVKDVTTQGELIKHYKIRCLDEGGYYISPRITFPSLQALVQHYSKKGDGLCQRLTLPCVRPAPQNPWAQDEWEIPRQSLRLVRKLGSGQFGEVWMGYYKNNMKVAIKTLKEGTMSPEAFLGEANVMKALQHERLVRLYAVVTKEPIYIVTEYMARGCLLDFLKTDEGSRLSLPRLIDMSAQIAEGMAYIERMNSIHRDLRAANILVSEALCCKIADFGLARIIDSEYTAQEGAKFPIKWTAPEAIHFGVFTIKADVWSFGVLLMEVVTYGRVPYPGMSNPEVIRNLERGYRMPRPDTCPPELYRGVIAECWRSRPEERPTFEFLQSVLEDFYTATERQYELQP

[5] = biological target: T2, Uncharacterized serine/threonine-protein kinase SBK3 (Homo sapiens) (UniProt P0C264); experiment: Selectivity interaction (KinomeScan (DiscoverX)) EUB0000607a SBK3; settings: at 10 µM
T2 sequence (whole entry): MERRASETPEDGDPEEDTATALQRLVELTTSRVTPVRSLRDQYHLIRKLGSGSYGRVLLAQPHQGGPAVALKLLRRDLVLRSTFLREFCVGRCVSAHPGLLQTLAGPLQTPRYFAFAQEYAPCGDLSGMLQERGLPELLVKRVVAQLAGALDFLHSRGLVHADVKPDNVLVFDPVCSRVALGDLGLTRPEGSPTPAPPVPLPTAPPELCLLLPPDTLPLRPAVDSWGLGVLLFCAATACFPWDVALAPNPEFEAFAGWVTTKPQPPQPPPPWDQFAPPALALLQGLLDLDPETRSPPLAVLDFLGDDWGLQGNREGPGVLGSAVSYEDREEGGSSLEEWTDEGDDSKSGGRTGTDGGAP

[6] = biological target: Serine/threonine-protein kinase Chk2 (Homo sapiens) (UniProt O96017); experiment: Selectivity interaction (KinomeScan (DiscoverX)) EUB0000045b CHEK2
Sequence of Serine/threonine-protein kinase Chk2 (Homo sapiens) (O96017 whole entry): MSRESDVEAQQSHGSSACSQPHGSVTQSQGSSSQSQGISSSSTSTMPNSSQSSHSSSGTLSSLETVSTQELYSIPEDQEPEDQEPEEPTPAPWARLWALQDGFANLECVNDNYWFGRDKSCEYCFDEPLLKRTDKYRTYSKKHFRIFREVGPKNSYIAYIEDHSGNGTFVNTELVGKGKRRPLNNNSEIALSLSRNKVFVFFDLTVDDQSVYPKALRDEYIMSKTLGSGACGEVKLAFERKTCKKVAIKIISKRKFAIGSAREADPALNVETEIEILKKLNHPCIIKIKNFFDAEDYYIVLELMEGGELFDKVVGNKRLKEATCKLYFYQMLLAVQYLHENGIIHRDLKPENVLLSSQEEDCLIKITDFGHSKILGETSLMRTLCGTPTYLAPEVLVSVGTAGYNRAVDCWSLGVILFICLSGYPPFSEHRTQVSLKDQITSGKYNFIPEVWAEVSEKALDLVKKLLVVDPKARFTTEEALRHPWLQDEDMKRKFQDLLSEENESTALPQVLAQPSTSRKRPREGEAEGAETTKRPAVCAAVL

[7] = biological target: Insulin receptor (Homo sapiens, UniProt P06213); experiment: Selectivity interaction (Kinase panel (enzymatic assay)) EUB0000595a INSR
Sequence of Insulin receptor (P06213 28-758 limits assumed): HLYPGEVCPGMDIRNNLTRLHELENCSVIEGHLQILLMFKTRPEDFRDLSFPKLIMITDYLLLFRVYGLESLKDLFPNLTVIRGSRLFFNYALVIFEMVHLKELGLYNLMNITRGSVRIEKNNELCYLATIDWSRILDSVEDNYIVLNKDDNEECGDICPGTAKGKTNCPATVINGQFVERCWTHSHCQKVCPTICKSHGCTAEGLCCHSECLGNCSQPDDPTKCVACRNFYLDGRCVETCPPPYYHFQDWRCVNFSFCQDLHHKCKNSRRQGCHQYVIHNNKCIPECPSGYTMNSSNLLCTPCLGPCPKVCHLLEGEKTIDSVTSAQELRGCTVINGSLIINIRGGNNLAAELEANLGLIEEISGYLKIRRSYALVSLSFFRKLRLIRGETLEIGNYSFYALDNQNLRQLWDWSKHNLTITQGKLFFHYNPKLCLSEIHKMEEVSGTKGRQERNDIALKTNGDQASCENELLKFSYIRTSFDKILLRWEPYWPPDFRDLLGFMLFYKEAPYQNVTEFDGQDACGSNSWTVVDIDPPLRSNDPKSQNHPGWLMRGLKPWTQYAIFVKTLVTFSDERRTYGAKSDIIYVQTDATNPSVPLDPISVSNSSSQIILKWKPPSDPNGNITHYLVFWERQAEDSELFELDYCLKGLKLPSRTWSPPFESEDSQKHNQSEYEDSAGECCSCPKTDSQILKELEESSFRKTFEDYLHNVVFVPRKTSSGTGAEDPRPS
Sequence of Insulin receptor (P06213 763-1382 limits assumed): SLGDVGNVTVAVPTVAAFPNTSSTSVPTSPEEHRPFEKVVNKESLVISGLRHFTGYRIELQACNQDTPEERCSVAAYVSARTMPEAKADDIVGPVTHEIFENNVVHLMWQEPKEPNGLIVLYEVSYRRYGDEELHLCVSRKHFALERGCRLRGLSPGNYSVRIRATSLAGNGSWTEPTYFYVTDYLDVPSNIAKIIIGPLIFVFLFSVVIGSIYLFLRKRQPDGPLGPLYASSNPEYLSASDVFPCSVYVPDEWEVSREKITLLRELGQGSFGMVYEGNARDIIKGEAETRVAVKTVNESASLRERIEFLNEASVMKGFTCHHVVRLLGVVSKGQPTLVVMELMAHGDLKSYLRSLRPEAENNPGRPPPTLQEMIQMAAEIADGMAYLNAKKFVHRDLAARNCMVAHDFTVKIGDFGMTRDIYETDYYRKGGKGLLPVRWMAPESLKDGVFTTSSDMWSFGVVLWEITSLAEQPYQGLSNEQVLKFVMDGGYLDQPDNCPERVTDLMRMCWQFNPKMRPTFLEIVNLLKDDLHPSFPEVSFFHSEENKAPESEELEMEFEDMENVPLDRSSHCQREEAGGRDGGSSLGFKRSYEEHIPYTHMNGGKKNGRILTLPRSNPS

[8] = biological target: Calcium/calmodulin-dependent protein kinase type II subunit delta (Homo sapiens) (UniProt Q13557); experiment: Selectivity interaction (ActivX KiNativ screen (kinase selectivity in THP-1 cell lysates)) EUB0000639a CAMK2D; assay type: subcellular; settings: lysate, at 0.2 µM
Sequence of Calcium/calmodulin-dependent protein kinase type II subunit delta (Homo sapiens) (Q13557 whole entry): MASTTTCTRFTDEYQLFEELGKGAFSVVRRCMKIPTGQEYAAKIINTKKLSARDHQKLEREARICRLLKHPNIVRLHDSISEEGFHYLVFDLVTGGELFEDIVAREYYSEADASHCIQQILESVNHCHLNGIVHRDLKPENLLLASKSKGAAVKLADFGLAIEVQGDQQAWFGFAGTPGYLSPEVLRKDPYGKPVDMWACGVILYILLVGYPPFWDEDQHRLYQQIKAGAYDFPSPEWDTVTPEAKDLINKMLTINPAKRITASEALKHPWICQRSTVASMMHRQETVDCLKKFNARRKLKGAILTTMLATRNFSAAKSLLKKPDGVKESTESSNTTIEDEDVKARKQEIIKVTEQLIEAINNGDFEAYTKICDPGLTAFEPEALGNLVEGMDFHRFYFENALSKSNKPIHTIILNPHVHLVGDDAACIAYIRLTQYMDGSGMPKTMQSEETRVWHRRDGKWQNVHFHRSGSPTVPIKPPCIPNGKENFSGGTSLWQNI

[9] = biological target: Proto-oncogene tyrosine-protein kinase ROS (Homo sapiens) (UniProt P08922); experiment: Selectivity interaction (Kinase panel (Invitrogen)) EUB0000639a ROS1; settings: at 200 nM
[10] = biological target: T3, Dual specificity mitogen-activated protein kinase kinase 7 (Homo sapiens) (UniProt O14733); experiment: Selectivity interaction (ProQinase) EUB0000171b MAP2K7
T3 sequence (whole entry): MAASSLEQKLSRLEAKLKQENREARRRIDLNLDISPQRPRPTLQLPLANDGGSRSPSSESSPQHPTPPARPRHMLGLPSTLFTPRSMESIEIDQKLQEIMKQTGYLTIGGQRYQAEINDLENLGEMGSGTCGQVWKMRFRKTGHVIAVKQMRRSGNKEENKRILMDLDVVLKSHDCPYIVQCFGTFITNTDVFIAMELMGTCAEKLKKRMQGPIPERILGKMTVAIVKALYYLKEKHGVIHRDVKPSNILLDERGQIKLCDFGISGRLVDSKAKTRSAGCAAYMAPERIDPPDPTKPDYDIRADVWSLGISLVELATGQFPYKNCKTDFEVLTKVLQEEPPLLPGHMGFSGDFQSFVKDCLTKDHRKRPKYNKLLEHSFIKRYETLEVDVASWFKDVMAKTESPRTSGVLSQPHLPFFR

[11] = biological target: T4, Serine/threonine-protein kinase STK11 (Homo sapiens) (UniProt Q15831); experiment: Selectivity interaction (KinomeScan (DiscoverX)) EUB0000666a STK11; settings: at 10 µM
T4 sequence (whole entry): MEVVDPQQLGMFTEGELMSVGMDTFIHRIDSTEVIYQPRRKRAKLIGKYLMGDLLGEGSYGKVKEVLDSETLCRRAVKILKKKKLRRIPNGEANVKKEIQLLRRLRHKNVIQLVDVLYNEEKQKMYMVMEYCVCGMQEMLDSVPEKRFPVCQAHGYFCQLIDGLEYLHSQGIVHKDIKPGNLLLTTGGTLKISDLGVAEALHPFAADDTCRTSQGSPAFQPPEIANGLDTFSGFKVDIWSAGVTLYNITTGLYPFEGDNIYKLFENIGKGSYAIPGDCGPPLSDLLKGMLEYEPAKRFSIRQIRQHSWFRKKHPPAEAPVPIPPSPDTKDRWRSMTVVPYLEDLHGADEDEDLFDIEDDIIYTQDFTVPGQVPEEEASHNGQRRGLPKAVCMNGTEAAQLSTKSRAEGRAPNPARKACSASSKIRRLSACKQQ

[12] = biological target: SWI/SNF-related matrix-associated actin-dependent regulator of chromatin subfamily A member 4 (Homo sapiens) (UniProt P51532); experiment: Selectivity interaction (Human bromodomain panel (DSF assay)) EUB0000233b SMARCA4
[13] = biological target: Interferon-induced, double-stranded RNA-activated protein kinase (Homo sapiens) (UniProt P19525); experiment: Selectivity interaction (LanthaScreen Eu Kinase Binding Assay) EUB0001632a EIF2AK2; settings: at 10 µM
Sequence of Interferon-induced, double-stranded RNA-activated protein kinase (Homo sapiens) (P19525 whole entry): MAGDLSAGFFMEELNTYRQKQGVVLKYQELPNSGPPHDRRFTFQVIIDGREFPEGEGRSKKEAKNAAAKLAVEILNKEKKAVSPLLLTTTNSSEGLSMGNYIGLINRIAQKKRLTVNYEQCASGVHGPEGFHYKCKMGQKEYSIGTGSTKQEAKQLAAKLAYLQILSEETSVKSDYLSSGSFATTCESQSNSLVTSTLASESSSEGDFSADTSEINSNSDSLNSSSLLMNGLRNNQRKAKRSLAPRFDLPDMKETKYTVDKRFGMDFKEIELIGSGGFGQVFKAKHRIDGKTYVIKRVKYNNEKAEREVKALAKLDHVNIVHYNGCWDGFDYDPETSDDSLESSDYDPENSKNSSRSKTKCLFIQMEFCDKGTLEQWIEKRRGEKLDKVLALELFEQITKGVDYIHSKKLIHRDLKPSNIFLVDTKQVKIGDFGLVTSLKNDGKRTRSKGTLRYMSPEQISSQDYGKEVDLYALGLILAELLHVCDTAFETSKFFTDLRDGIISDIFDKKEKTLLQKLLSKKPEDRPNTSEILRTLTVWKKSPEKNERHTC

[14] = biological target: Serine/threonine-protein kinase pim-2 (Homo sapiens, UniProt Q9P1W9); experiment: Selectivity interaction (Kinase screening (Nanosyn)) EUB0000604a PIM2
[15] = biological target: Mast/stem cell growth factor receptor Kit (Homo sapiens, UniProt P10721); experiment: Selectivity interaction (KinomeScan (DiscoverX)) EUB0000695a KIT; settings: at 100 nM
Sequence of Mast/stem cell growth factor receptor Kit (P10721 whole entry, the tested form may be a part): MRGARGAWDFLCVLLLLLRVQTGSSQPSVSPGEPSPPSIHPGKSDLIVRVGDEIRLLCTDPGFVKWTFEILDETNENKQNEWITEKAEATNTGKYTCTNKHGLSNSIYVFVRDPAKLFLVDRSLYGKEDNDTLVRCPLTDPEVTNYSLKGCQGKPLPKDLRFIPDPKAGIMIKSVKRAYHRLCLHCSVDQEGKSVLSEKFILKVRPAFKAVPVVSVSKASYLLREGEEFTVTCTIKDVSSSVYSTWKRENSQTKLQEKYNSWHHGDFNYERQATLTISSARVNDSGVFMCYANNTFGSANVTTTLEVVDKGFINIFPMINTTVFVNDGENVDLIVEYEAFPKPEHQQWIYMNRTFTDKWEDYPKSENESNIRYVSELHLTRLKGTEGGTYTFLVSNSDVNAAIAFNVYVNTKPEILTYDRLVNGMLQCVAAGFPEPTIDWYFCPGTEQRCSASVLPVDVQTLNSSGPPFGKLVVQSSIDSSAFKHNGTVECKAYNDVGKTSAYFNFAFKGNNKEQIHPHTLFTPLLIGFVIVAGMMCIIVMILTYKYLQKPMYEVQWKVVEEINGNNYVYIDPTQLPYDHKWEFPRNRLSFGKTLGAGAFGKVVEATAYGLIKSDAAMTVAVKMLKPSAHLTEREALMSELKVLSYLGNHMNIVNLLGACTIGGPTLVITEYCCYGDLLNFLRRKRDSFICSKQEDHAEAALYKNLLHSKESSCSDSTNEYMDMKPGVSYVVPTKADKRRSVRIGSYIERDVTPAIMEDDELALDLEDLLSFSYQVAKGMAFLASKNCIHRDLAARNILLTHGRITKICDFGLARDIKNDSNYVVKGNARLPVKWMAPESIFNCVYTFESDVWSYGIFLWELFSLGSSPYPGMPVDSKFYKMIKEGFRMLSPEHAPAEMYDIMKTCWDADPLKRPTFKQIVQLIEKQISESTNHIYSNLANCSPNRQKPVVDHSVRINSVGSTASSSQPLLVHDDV

[16] = biological target: Phosphatidylinositol 4-phosphate 3-kinase C2 domain-containing subunit beta (Homo sapiens) (UniProt O00750); experiment: Selectivity interaction (KinomeScan (DiscoverX)) EUB0000695a PIK3C2B; settings: at 100 nM

`CCN(CC)CCCCNc1ncc2cc(-c3cc(OC)cc(OC)c3)c(NC(=O)NC(C)(C)C)nc2n1` showed a % of control [1] of 100% and a % of control [2] of 100%.
`CC(=O)c1cc(-c2ccccc2OCC2CC2)c2ncccn12` gave a % of control [3] of 105%.
`CNC(=O)Nc1ccc(-c2nc(N3CC4CCC(C3)O4)c3cnn(C4CCC5(CC4)OCCO5)c3n2)cc1` showed a % of control [4] of 96% and a % of control [5] of 96%.
`C=CC(=O)Nc1cc(-n2c(=O)ccc3cnc4ccc(-c5ccc(NS(C)(=O)=O)cc5)cc4c32)ccc1C` showed a % of control ([6]; at 1 µM) of 100% and a % of control ([6]; at 10 µM) of 100%.
In the case of `COCC(=O)NC/C=C/c1ccc2ncnc(Nc3ccc(Oc4ccc(C)nc4)c(C)c3)c2c1` [CP-724714], the IC50 [7] is reported as > 10 µM.
`CC[C@@H]1[C@H](F)C(=O)N[C@@H]1COc1nccc2cc(C(N)=O)c(OC)cc12` [ZIMLOVISERTIB] showed a % of inhibition [8] of 6.9% and a % of inhibition [9] of 18.1%.
In the case of `C=CC(=O)Nc1cccc(C(=O)Nc2ccc(Nc3cc(-c4[nH]c(SC)nc4C)ccn3)cc2)c1`, the % of control ([10]; at 1 µM) is reported as 45% and the % of control ([10]; at 5 µM) is reported as 39%.
Compound `O=C(NOC[C@H](O)CO)c1ccc(F)c(F)c1Nc1ccc(I)cc1F` has a % of control [11] of 83%.
`CN(C)CCCOc1ccc(-c2cc(NCCCn3cccn3)nc(S(C)(=O)=O)n2)cc1` was tested, and the dTM [12] was < 2 K.
With `Cn1cc(-n2cnc3c(NCc4nc5cc(Cl)c(Cl)cc5[nH]4)nc(N4CCOCC4)nc32)cn1` the % of inhibition [13] was -80.6%.
In the case of `Cc1cnc(Nc2ccc(F)cc2Cl)nc1-c1c[nH]c(C(=O)N[C@H](CO)c2cccc(Cl)c2)c1`, the % of inhibition [14] is reported as 3%.
`Cc1cc(F)c(C(=O)Nc2cccc(-c3nncn3C(C)C)n2)cc1-n1cnc(C2CC2)c1` showed a % of control [15] of 100% and a % of control [16] of 100%.
